Reference: ChEMBL document CHEMBL5385976, “Recognition of arylmethylidene derivatives of imidazothiazolotriazinones as novel tubulin polymerization inhibitors” (RSC Med Chem, 2024)

Experiments:
Type in all cases: functional
COLO 205 = experiment: Anticancer activity against human COLO 205 cells assessed as cell growth at 10 umol/L incubated for 48 hrs by SRB assay relative to control; settings: COLO 205, 48 h, dose 10 µmol/L, read-out: Activity
UACC-257 = experiment: Anticancer activity against human UACC-257 cells assessed as cell growth at 10 umol/L incubated for 48 hrs by SRB assay relative to control; settings: UACC-257, 48 h, dose 10 µmol/L, read-out: Activity
SF-539 = experiment: Anticancer activity against human SF-539 cells assessed as cell growth at 10 umol/L incubated for 48 hrs by SRB assay relative to control; settings: SF-539, 48 h, dose 10 µmol/L, read-out: Activity
SK-OV-3 = experiment: Anticancer activity against human SK-OV-3 cells assessed as cell growth at 10 umol/L incubated for 48 hrs by SRB assay relative to control; settings: SK-OV-3, 48 h, dose 10 µmol/L, read-out: Activity
SNB-75 = experiment: Anticancer activity against human SNB-75 cells assessed as cell growth at 10 umol/L incubated for 48 hrs by SRB assay relative to control; settings: SNB-75, 48 h, dose 10 µmol/L, read-out: Activity
HCT-116 = experiment: Anticancer activity against human HCT-116 cells assessed as cell growth at 10 umol/L incubated for 48 hrs by SRB assay relative to control; settings: HCT-116, 48 h, dose 10 µmol/L, read-out: Activity
K562 [1] = experiment: Induction of apoptosis in human K562 cells at 0.5 uM incubated for 3 days by RNase/PI staining based flow cytometry (reference value: 1.4 %); settings: time 3 day
K562 [2] = experiment: Anticancer activity against human K562 cells assessed as cell growth at 10 umol/L incubated for 48 hrs by SRB assay relative to control; settings: K562, 48 h, dose 10 µmol/L, read-out: Activity
786-0 = experiment: Anticancer activity against human 786-0 cells assessed as cell growth at 10 umol/L incubated for 48 hrs by SRB assay relative to control; settings: 786-0, 48 h, dose 10 µmol/L, read-out: Activity
UACC-62 = experiment: Anticancer activity against human UACC-62 cells assessed as cell growth at 10 umol/L incubated for 48 hrs by SRB assay relative to control; settings: UACC-62, 48 h, dose 10 µmol/L, read-out: Activity
SK-MEL-5 = experiment: Anticancer activity against human SK-MEL-5 cells assessed as cell growth at 10 umol/L incubated for 48 hrs by SRB assay relative to control; settings: SK-MEL-5, 48 h, dose 10 µmol/L, read-out: Activity
MDA-MB-468 = experiment: Anticancer activity against human MDA-MB-468 cells assessed as cell growth at 10 umol/L incubated for 48 hrs by SRB assay relative to control; settings: MDA-MB-468, 48 h, dose 10 µmol/L, read-out: Activity
KM12 = experiment: Anticancer activity against human KM12 cells assessed as cell growth at 10 umol/L incubated for 48 hrs by SRB assay relative to control; settings: KM12, 48 h, dose 10 µmol/L, read-out: Activity
SF-268 = experiment: Anticancer activity against human SF-268 cells assessed as cell growth at 10 umol/L incubated for 48 hrs by SRB assay relative to control; settings: SF-268, 48 h, dose 10 µmol/L, read-out: Activity
K562 [3] = experiment: Induction of cell cycle arrest in human K562 cells at S phase at 0.5 uM incubated for 3 days by RNase/PI staining based flow cytometry (reference value: 16 %); settings: time 3 day
OVCAR-5 = experiment: Anticancer activity against human OVCAR-5 cells assessed as cell growth at 10 umol/L incubated for 48 hrs by SRB assay relative to control; settings: OVCAR-5, 48 h, dose 10 µmol/L, read-out: Activity
SN12C = experiment: Anticancer activity against human SN12C cells assessed as cell growth at 10 umol/L incubated for 48 hrs by SRB assay relative to control; settings: dose 10 µmol/L, read-out: Activity
NCI-H322M = experiment: Anticancer activity against human NCI-H322M cells assessed as cell growth at 10 umol/L incubated for 48 hrs by SRB assay relative to control; settings: dose 10 µmol/L, read-out: Activity
ACHN = experiment: Anticancer activity against human ACHN cells assessed as cell growth at 10 umol/L incubated for 48 hrs by SRB assay relative to control; settings: dose 10 µmol/L, read-out: Activity
HCT-15 = experiment: Anticancer activity against human HCT-15 cells assessed as cell growth at 10 umol/L incubated for 48 hrs by SRB assay relative to control; settings: HCT-15, 48 h, dose 10 µmol/L, read-out: Activity
CAKI-1 = experiment: Anticancer activity against human CAKI-1 cells assessed as cell growth at 10 umol/L incubated for 48 hrs by SRB assay relative to control; settings: CAKI-1, 48 h, dose 10 µmol/L, read-out: Activity
M14 = experiment: Anticancer activity against human M14 cells assessed as cell growth at 10 umol/L incubated for 48 hrs by SRB assay relative to control; settings: M14, 48 h, dose 10 µmol/L, read-out: Activity
K562 [4] = experiment: Induction of cell cycle arrest in human K562 cells at G2/M phase at 0.5 uM incubated for 3 days by RNase/PI staining based flow cytometry (reference value: 31 %); settings: time 3 day
HT-29 = experiment: Anticancer activity against human HT-29 cells assessed as cell growth at 10 umol/L incubated for 48 hrs by SRB assay relative to control; settings: HT-29, 48 h, dose 10 µmol/L, read-out: Activity
DU-145 = experiment: Anticancer activity against human DU-145 cells assessed as cell growth at 10 umol/L incubated for 48 hrs by SRB assay relative to control; settings: DU-145, 48 h, dose 10 µmol/L, read-out: Activity
SR = experiment: Anticancer activity against human SR cells assessed as cell growth at 10 umol/L incubated for 48 hrs by SRB assay relative to control; settings: dose 10 µmol/L, read-out: Activity
CCRF-CEM = experiment: Anticancer activity against human CCRF-CEM cells assessed as cell growth at 10 umol/L incubated for 48 hrs by SRB assay relative to control; settings: dose 10 µmol/L, read-out: Activity
Hs-578T = experiment: Anticancer activity against human Hs-578T cells assessed as cell growth at 10 umol/L incubated for 48 hrs by SRB assay relative to control; settings: dose 10 µmol/L, read-out: Activity
LOX IMVI = experiment: Anticancer activity against human LOX IMVI cells assessed as cell growth at 10 umol/L incubated for 48 hrs by SRB assay relative to control; settings: dose 10 µmol/L, read-out: Activity
IGROV-1 = experiment: Anticancer activity against human IGROV-1 cells assessed as cell growth at 10 umol/L incubated for 48 hrs by SRB assay relative to control; settings: IGROV-1, 48 h, dose 10 µmol/L, read-out: Activity
A549 = experiment: Anticancer activity against human A549 cells assessed as cell growth at 10 umol/L incubated for 48 hrs by SRB assay relative to control; settings: A549, 48 h, dose 10 µmol/L, read-out: Activity
OVCAR-4 = experiment: Anticancer activity against human OVCAR-4 cells assessed as cell growth at 10 umol/L incubated for 48 hrs by SRB assay relative to control; settings: OVCAR-4, 48 h, dose 10 µmol/L, read-out: Activity

## COc1cc2c(c(OC)c1OC)-c1ccc(OC)c(=O)cc1[C@@H](NC(C)=O)CC2 [COLCHICINE]
COLO 205
  growth at 10 µM: -47.6%
UACC-257
  growth at 10 µM: 24.9%
SF-539
  growth at 10 µM: 7.9%
SK-OV-3
  growth at 10 µM: 36.1%
SNB-75
  growth at 10 µM: 19.3%
HCT-116
  growth at 10 µM: 0.2%
K562 [1]
  Activity: 3.1%
K562 [2]
  growth at 10 µM: -25.7%
786-0
  growth at 10 µM: 15.4%
UACC-62
  growth at 10 µM: 19.1%
SK-MEL-5
  growth at 10 µM: 30.7%
MDA-MB-468
  growth at 10 µM: 70.5%
KM12
  growth at 10 µM: 3.7%
SF-268
  growth at 10 µM: 35.1%
K562 [3]
  Activity: 19%
OVCAR-5
  growth at 10 µM: 31.2%
SN12C
  growth at 10 µM: 46.8%
NCI-H322M
  growth at 10 µM: 36.1%
ACHN
  growth at 10 µM: 30.5%
HCT-15
  growth at 10 µM: -16.8%
CAKI-1
  growth at 10 µM: 20.3%
M14
  growth at 10 µM: 1.7%
K562 [4]
  Activity: 56%
HT-29
  growth at 10 µM: -29.9%
DU-145
  growth at 10 µM: 7.6%
SR
  growth at 10 µM: 5.4%
CCRF-CEM
  growth at 10 µM: -38.2%
Hs-578T
  growth at 10 µM: -7.1%
LOX IMVI
  growth at 10 µM: 26.5%
IGROV-1
  growth at 10 µM: -49%
A549
  growth at 10 µM: 44.9%
OVCAR-4
  growth at 10 µM: 56.4%

## CCN1C(=O)N(CC)C2C1NN=c1s/c(=C\c3ccc(Cl)cc3Cl)c(=O)n12 (centres undefined)
COLO 205
  growth at 10 µM: -7.9%
UACC-257
  growth at 10 µM: 68.6%
SF-539
  growth at 10 µM: 12.8%
SK-OV-3
  growth at 10 µM: 29.2%
SNB-75
  growth at 10 µM: 19.7%
HCT-116
  growth at 10 µM: 9.7%
K562 [1]
  Activity: 5%
K562 [2]
  growth at 10 µM: 83.7%
786-0
  growth at 10 µM: 20.6%
UACC-62
  growth at 10 µM: 28.9%
SK-MEL-5
  growth at 10 µM: 66.1%
MDA-MB-468
  growth at 10 µM: 5.4%
KM12
  growth at 10 µM: 7.5%
SF-268
  growth at 10 µM: 42.3%
K562 [3]
  Activity: 14%
OVCAR-5
  growth at 10 µM: 28.2%
SN12C
  growth at 10 µM: 21.5%
NCI-H322M
  growth at 10 µM: 42.4%
ACHN
  growth at 10 µM: 26.7%
HCT-15
  growth at 10 µM: 9.5%
CAKI-1
  growth at 10 µM: 21.1%
M14
  growth at 10 µM: 13.8%
K562 [4]
  Activity: 65%
HT-29
  growth at 10 µM: 2.8%
DU-145
  growth at 10 µM: 6%
SR
  growth at 10 µM: 12.3%
CCRF-CEM
  growth at 10 µM: -52.1%
Hs-578T
  growth at 10 µM: 15.8%
LOX IMVI
  growth at 10 µM: 18.3%
IGROV-1
  growth at 10 µM: -43.3%
A549
  growth at 10 µM: 14.6%
OVCAR-4
  growth at 10 µM: 46.1%
